# Measurements as given in patent US9056867B2, “N-substituted heterocyclyl carboxamides” (NOVARTIS AG, priority 2011, dated 2015).
# Biological target: T1, ΔF508-CFTR channel (Homo sapiens, UniProt P13569, DEL508-508)
# T1 construct: expressed in transfected cells
# Test: CFTR potentiator assays (membrane potential assay, IonWorks Quattro assay, ion transport assay); the patent does not say which one gave the values
# Type: cell-based
# Settings: cells stably expressing ΔF508-CFTR, forskolin present; values given in μM; read-out: Ki values in the data measurements described above
# Description: CFTR activity can be quantified by measuring the transmembrane potential. The means for measuring the transmembrane potential in a biological system can employ a number of methods including electrophysiological and optical fluoresence-based membrane potential assays.
# The optical membrane potential assay utilises a negatively charged potentiometric dye, such as the FLIPR membrane potential dye (FMP) (see Baxter D F, Kirk M, Garcia A F, Raimondi A, Holmqvist M H, Flint K K, Bojanic D, Distefano P S, Curtis R, Xie Y. ‘A novel membrane potential-sensitive fluorescent dye improves cell-based assays for ion channels.’ J Biomol Screen. 2002 Feb.; 7(1):79-85) which when extraceullar is bound to a quenching agent. Upon cellular depolarisation the negatively charged dye redistributes to the intracellular compartment, unbinding from the membrane impermeant quench agent, yielding an increase in fluorescence. This change in fluoresence is proportional to the change in transmembrane potential which can result from the activity of CFTR. The changes in fluorescence can be monitored in real time by an appropriately equipped fluorescence detector such as the FLIPR (fluorometric imaging plate reader) in 96 or 384-well microtitre plates.
# Chinese hamster ovary (CHO) cells stably expressing the ΔF508-CFTR channel were used for membrane potential experiments. Cells were maintained at 37° C. in 5% v/v CO2 at 100% humidity in Modified Eagles medium (MEM) supplemenetd with 8% v/v foetal calf serum, 100 μg/ml methotrexate and 100 U/ml penicillin/streptomycin. Cells were grown in 225 cm^2 tissue culture flasks. For membrane potential assays cells were seeded into 96 well plates at 40,000 cells per well, allowed to adhere and then maintained at 26° C. for 48 h to facilitate channel insertion.
# The membrane potential screening assay utilised a low chloride ion containing extraceullular solution (˜5 mM) combined with a double addition protocol. The first addition was of buffer with or without test compound followed 5 minutes later by an addition of forskolin (1-20 μM)—this protocol favours maximum chloride efflux in response to ΔF508-CFTR activation. The ΔF508-CFTR mediated chloride ion efflux leads to a membrane depolarisation which is optically monitoried by the FMP dye.
# Low chloride extracellular (mM): 120 Na-gluconate, 1.2 CaCl2, 3.3 KH2PO4, 0.8 K2HPO4, 1.2 MgCl2, 10.0 D-glucose, 20.0 HEPES, pH 7.4 with NaOH
# FMP dye: made up as per manufacuturers instructions in low chloride extracellular solution detailed above, at 10× final concentration, and stored as 1 mL aliquots at −20° C.
# CFTR activity can also be quantified electrophysiologically using the whole-cell configuration of the patch clamp technique (Hamill et al Pflugers Acrhive 1981). This assay directly measures the currents associated with chloride flow through CFTR channels whilst either maintaining or adjusting the transmembrane voltage. This assay can use either single glass micropipettes or parallel planar arrays to measure CFTR activity from native or recombinant cell systems. Currents measured using parallel planar arrays can be quantified using an appropriately equipped instrument such as the IonWorks Quattro (Molecular Devices) or the Qpatch (Sophion). The Quattro system can measure CFTR currents from either a single cell per recording well (HT configuration) or alternatively from a population of 64 cells per well (Population Patch Clamp PPC) (Finkel A, Wittel A, Yang N, Handran S, Hughes J, Costantin J. ‘Population patch clamp improves data consistency and success rates in the measurement of ionic currents.’ J Biomol Screen. 2006 Aug.; 11(5):488-96).
# Chinese hamster ovary (CHO) cells stably expressing the ΔF508-CFTR channel were used for IonWorks Quattro experiments. […]
# T1 sequence (P13569 with tags, fused parts or gaps DEL508-508): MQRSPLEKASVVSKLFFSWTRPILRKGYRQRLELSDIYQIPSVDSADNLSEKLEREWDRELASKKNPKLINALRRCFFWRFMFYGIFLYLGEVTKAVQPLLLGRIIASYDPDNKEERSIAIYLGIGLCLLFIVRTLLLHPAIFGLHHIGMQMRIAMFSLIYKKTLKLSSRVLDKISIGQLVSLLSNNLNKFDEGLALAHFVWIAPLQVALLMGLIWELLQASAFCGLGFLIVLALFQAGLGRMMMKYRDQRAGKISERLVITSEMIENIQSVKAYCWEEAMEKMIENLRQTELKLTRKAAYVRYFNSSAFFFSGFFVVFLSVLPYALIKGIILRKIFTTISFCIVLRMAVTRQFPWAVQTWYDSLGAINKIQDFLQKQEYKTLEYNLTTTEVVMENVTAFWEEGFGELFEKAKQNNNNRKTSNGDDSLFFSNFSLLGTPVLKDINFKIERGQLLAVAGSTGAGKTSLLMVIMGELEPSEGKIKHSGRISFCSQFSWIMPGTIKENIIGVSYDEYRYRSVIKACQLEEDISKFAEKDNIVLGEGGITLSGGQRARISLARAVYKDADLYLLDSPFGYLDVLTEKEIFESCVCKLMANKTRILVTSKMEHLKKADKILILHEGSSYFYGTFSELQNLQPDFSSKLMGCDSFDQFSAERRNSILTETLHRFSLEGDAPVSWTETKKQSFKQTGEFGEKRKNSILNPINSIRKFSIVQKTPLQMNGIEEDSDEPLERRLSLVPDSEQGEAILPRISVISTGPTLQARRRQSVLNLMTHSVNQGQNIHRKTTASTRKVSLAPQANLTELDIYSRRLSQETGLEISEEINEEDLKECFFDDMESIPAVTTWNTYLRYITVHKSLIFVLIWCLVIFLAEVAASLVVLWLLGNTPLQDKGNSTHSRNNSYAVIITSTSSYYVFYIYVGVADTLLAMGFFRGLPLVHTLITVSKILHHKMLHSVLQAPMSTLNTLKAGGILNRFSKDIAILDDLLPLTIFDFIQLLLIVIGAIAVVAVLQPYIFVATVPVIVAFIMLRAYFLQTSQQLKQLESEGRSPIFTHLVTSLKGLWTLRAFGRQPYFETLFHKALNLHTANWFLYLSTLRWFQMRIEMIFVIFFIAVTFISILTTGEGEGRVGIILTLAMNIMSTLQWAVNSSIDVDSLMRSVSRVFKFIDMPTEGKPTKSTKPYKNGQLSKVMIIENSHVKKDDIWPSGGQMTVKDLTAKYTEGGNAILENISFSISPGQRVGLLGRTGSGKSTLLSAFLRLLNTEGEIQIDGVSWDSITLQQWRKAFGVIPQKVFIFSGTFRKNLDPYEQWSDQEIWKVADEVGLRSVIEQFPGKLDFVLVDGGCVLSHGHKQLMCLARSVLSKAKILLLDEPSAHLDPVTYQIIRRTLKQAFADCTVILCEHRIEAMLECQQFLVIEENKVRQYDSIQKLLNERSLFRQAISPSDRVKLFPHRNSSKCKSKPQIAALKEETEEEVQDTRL
row,Ki [µM],Structure (SMILES)
1,0.255,"Nc1nc(C(F)(F)F)c(Cl)nc1C(=O)Nc1ccn[nH]1 [Example 14, 3-Amino-6-chloro-5-trifluoromethyl-pyrazine-2-carboxylic acid (2H-pyrazole-3-yl)amide]"
2,1.55,"Nc1nc(C(F)(F)F)c(Br)nc1C(=O)Nc1[nH]ncc1-c1ccccn1 [Example 19, 3-Amino-6-bromo-N-(4-(pyridin-2-yl)-1H-pyrazol-5-yl)-5-(trifluoromethyl)pyrazine-2-carboxamide]"
3,0.004,"Nc1cc(C(F)(F)F)c(Br)nc1C(=O)Nc1n[nH]c2nccnc12 [Example 18, 3-Amino-6-bromo-N-(1H-pyrazolo[4,3-b]pyrazin-3-yl)-5-(trifluoromethyl)picolinamide]"
4,0.07,"Nc1cc(C(F)(F)F)c(Br)nc1C(=O)Nc1cc(C(F)(F)F)n[nH]1 [Example 5, 3-Amino-6-bromo-5-trifluoromethyl-pyridine-2-carboxylic acid (5-trifluoromethyl-2H-pyrazol-3-yl)-amide]"
5,0.025,"Nc1cc(C(F)(F)F)c(Cl)nc1C(=O)Nc1ccn[nH]1 [Example 22, 3-Amino-6-chloro-N-(1H-pyrazol-5-yl)-5-(trifluoromethyl)picolinamide]"
6,0.16,"Cc1nnc(-c2ccc(-c3nc(C(=O)Nc4ccn[nH]4)c(N)cc3C(F)(F)F)cc2)o1 [Example 26.3, 3-Amino-6-[4-(5-methyl-[1,3,4]oxadiazol-2-yl)-phenyl]-5-trifluoromethyl-pyridine-2-carboxylic acid (2H-pyrazol-3-yl)-amide]"
7,0.02,"Nc1nc(C(F)(F)F)c(Br)nc1C(=O)Nc1nc(Cc2ccccc2)n[nH]1 [Example 24, 3-Amino-N-(3-benzyl-1H-1,2,4-triazol-5-yl)-6-bromo-5-(trifluoromethyl)pyrazin-2-carboxamide]"
8,0.01,"Nc1cc(C(F)(F)F)c(Br)nc1C(=O)Nc1ccn[nH]1 [Example 7, 3-Amino-6-bromo-5-trifluoromethyl-pyridine-2-carboxylic acid (2H-pyrazol-3-yl)-amide]"

# Same assay, conditions: cells stably expressing ΔF508-CFTR, forskolin present; values in nM; read-out: Ki values in the data measurements described above
row,Ki [µM],Structure (SMILES)
1,0.045,"COc1ccc(-c2nc(C(=O)Nc3ccn[nH]3)c(N)cc2C(F)(F)F)cn1 [Example 26.2, 5-Amino-6′-methoxy-3-trifluoromethyl-[2,3′]bipyridinyl-6-carboxylic acid (2H-pyrazol-3-yl)-amide]"
2,0.014,"COc1ncccc1-c1nc(C(=O)Nc2cc[nH]n2)c(N)cc1C(F)(F)F [Example 25.3, 5-Amino-2′-methoxy-3-trifluoro methyl-[2,3′]bipyridinyl-6-carboxylic acid (1H-pyrazol-3-yl)-amide]"
3,0.013,"Cc1cc(Cl)ccc1-c1nc(C(=O)Nc2ccn[nH]2)c(N)cc1C(F)(F)F [Example 25.2, 3-Amino-6-(4-chloro-2-methyl-phenyl)-5-trifluoro methyl-pyridine-2-carboxylic acid (2H-pyrazol-3-yl)-amide]"
4,0.0038,"Nc1cc(C(F)(F)F)c(-c2ccc(F)cc2)nc1C(=O)Nc1cc[nH]n1 [Example 25.1, 3-Amino-6-(4-fluorophenyl)-N-(1H-pyrazol-3-yl)-5-(trifluoromethyl)picolinamide]"
5,0.03,"Nc1cc(C(F)(F)F)c(-c2cccc(CN3CCCC3=O)c2)nc1C(=O)Nc1ccn[nH]1 [Example 26.1, 3-Amino-6-[3-(2-oxo-pyrrolidin-1-ylmethyl)-phenyl]-5-trifluoromethyl-pyridine-2-carboxylic acid (2H-pyrazol-3-yl)-amide]"
6,0.019,"Cc1cn[nH]c1NC(=O)c1nc(C(F)(F)F)c(C(F)(F)F)nc1N [Example 27, 3-Amino-5,6-bis-trifluoromethyl-pyrazine-2-carboxylic acid (4-methyl-2H-pyrazol-3-yl)-amide]"
